Measured values as given in ChEMBL document CHEMBL5634186, “Structure-Activity Relationship Study of Biselyngbyolide B Reveals Mitochondrial Fission-Induced Cytotoxicity in Cancer” (ACS Med Chem Lett, 2024).

Legend:
HCT-116 = assay: Anticancer activity against human HCT-116 cells assessed as inhibition of cell viability incubated for 16 hrs by MTT assay; format: functional, cell-based; settings: HCT-116, 16 h
[1] = Cytotoxicity against HEK293 cells assessed as reduction in cell viability incubated for 16 hrs by MTT assay; format: toxicity, cell-based; settings: human

IC50 (HCT-116) [µM]	Compound	IC50 at 16 h [1] [µM]
7.1	C/C=C/C/C(C)=C\[C@H]1C/C=C/C=C/C[C@H](C)/C=C/[C@@H](OC)C/C=C/[C@@H](O)CC(=O)O1	11.8
8.1	CCCC/C(C)=C\[C@H]1C/C=C/C=C/C[C@H](C)/C=C(\C)[C@@H](OC)C/C=C/[C@@H](O)CC(=O)O1	11.3
15.6	C/C=C/C/C(C)=C\[C@H]1C/C=C/C=C/C[C@H](C)/C=C(\C)[C@@H](OC)C/C=C/CCC(=O)O1	15.2
0.1	C/C=C/C/C(C)=C\[C@H]1C/C=C/C=C/C[C@H](C)/C=C(\C)[C@@H](OC)C[C@@H](O)C[C@@H](O)CC(=O)O1	20.8

Compound	IC50 (HCT-116) [µM]	IC50 at 16 h [1] [µM]
C/C=C/C/C(C)=C\[C@H]1C/C=C/C=C/C[C@H](C)/C=C(\C)[C@@H](OC)C/C=C/[C@@H](O)CC(=O)O1	3.2	20.6
C/C=C/C/C(C)=C\[C@@H]1C/C=C/C=C/C[C@H](C)/C=C(\C)[C@@H](OC)C/C=C/[C@@H](O)CC(=O)O1	8.9	18.1
